For experiment [1], the system named is VEGF-induced blood retinal barrier breakdown. Kind of experiment: VEGF-induced blood retinal barrier breakdown (Evans Blue). Type of experiment: in vivo, Brown Norway rats. The note with it: 24 hours after intravitreal 50 ng VEGF. On the procedure:
(§1) This study employed Brown Norway rats, AZ (1 μg, 10 μg, 20 μg), PBS, aprotinin, VEGF164, and polyclonal anti-AZ antibody (1 μg). Briefly, Brown Norway rats received intravitreal injections of AZ (1 μg, 10 μg and 20 μg) in one eye and PBS in the contralateral eye. BRB breakdown was quantified using the Evans Blue (EB) technique at 1 hour, 3 hours, and 24 hours after intravitreal injection of AZ or PBS. To assess whether AZ induced retinal leukostasis, firm leukocyte adhesion was quantified at 3 hours and 24 hours post AZ injection (10 μg) using the ex vivo conconavalin leukostasis assay. To block AZ, rats were treated with a single intravenous injection of aprotinin (30,000KIU), prior to the intravitreal injections. To investigate whether AZ was involved in VEGF-induced BRB breakdown, rats received intravitreal injections of 50 ng recombinant mouse VEGF164 in one eye and PBS in the other eye and were treated intravenously with aprotinin (50,000KIU every eight hours) or polyclonal anti-AZ antibody (1 μg). BRB breakdown and retinal leukostasis were quantified 24 hours after VEGF injection.
Rats received intravitreous injections of 5 μl of sterile phosphate-buffered saline (PBS) containing 50 ng VEGF164 (R&D Systems, Minneapolis, Minn.) in one eye and 5 μl of sterile phosphate-buffered saline (PBS) in the contralateral eye. The retinas were analyzed for leakage 24 hours after VEGF injection.
In a second group, the rats were additionally treated intravenously with aprotinin (Trasylol®, Bayer Pharmaceuticals). 50,000KIU of aprotinin (5 ml of Trasylol®) was administered intravenously through the tail vein 1 hour before, as well as 8 hours and 16 hours after, the intravitreal injection of VEGF. The retinas were analyzed 24 hours after VEGF administration.
In a third group, rats were treated with intravitreous injections of 1 μg of goat anti-human azurocidin polyclonal antibody (5 μl of a 200 μg/ml antibody solution, Santa Cruz biotechnology) or control goat isotype IgG (R&D system) in the VEGF injected eye 6 hours after VEGF administration.
Retinal vascular permeability was quantified as previously described (Qaum et al. (2002) supra, Xu et al. (2001) INVEST. OPHTHALMOL. VIS. SCI. 42; 789-94). After the animals were deeply anesthetized, Evans blue dye (Sigma) dissolved in normal saline (30 mg/ml) was injected through the tail vein over 10 seconds at a dosage of 45 mg/kg. Blood samples were obtained from the left ventricle, just before perfusion at 2 hours, to obtain the time-average Evans blue dye plasma concentration. These blood samples were centrifuged at 12,000 rpm for 15 minutes and diluted to 1/10,000th of their initial concentration in formamide (Sigma). The background-subtracted absorbance was determined by measuring each sample at 620 nm (the absorbance maximum for Evans blue dye in formamide) and 740 nm (the absorbance minimum) with a spectrophotometer. The concentration of dye in the plasma was calculated from a standard curve of Evans blue dye in formamide. After the dye had circulated for 2 hours, the chest cavity was opened, and the rats were perfused through the left ventricle with 1% paraformaldehyde in citrate buffer (0.05 M, pH 3.5) at a physiological pressure of 120 mm Hg. The retinas were then carefully dissected under an operating microscope. After measurement of the retinal weight, Evans blue dye was extracted by incubating each retina in 0.180 ml of formamide for 18 hours at 70° C. The extract was ultracentrifuged at a speed of 14,000 rpm for 60 minutes at 25° C. Sixty microliters of the supernatant was used for spectrophotometric measurement at 620 nm and 740 nm. The background-subtracted absorbance was determined by measuring each sample at 620 nm (the absorbance maximum for Evans blue dye in formamide) and 740 nm (the absorbance minimum). The concentration of dye in the extracts was calculated from a standard curve of Evans blue dye in formamide. […]

The test system of experiment [2] is murine brain microvascular endothelial cells (bEND3). Kind of experiment: Transendothelial electrical resistance (TEER), in vitro model of the BBB. Type of experiment: cell-based. To be noted: AZ 25 μg/ml, VEGF 100 ng/ml. On the procedure: The purpose of this experiment was to investigate the direct effects of VEGF and/or AZ on the BBB. This study used an in vitro model of the BBB in which transendothelial electrical resistance (TEER) in barrier-privileged murine brain microvascular endothelial cells (bEND3) was measured. The results provide support that the direct effects of VEGF and AZ on the endothelium of the BBB, although related, may be distinct.
Murine brain microvascular endothelial cells (bEND3) were grown on 0.4 μm fibronectin-coated inserts in 24-well plates (BD Bioscience, San Jose, Calif.). After the cells reached confluency, the cells were stimulated with AZ (AZ, 25 μg/ml), VEGF (100 ng/ml) or both. Electrical resistance was measured at the indicated time-points after the treatment by using a volt-ohmmeter (EVOM, World Precision Instruments, Sarasota, Fla.) with the electrode reproducibly positioned in each well. Transendothelial electrical resistance (TEER) values for each Transwell were calculated by subtracting the electrical resistance of the blank wells (coated filters without cells) prepared and treated as the experimental samples. All experiments were carried out in quadruplicate. The results were expressed as Mean±SEM from n=4 independent experiments.

Experiment [3] deals with retinal vascular permeability. Kind of experiment: Qualitative evaluation of retinal vascular permeability with 20-kDa FITC conjugated dextran. Type of experiment: in vivo, Brown Norway rats. To be noted: flat-mount retinas, VEGF-injected eyes with or without aprotinin. The method, then: Retinal vascular permeability was documented in a histological manner by intravenous injection of 20-kDa FITC conjugated dextran (50 mg/Kg, Sigma Aldrich). Rats were sacrificed 30 minutes later with intracardiac perfusion of 4% paraformaldehyde to fix the dextran conjugate in the tissues. The retinas were carefully dissected and flat mounted in anti-fading medium (Vector Laboratories). Flat-mount retinas were examined by fluorescent microscopy. Digital color enhancement (green) was equally applied to all images for improved visualization of fluorescence.

In experiment [4] the test system is isolated leukocytes. To be noted: VEGF 5-500 ng/ml, 20 minutes.
The test system of experiment [5] is VEGF-induced retinal leukostasis. Kind of experiment: Concanavalin A ex vivo retinal leukostasis quantification, VEGF-induced. The format is in vivo, Brown Norway rats. The method, then: as §1
Deep anesthesia was induced with xylazine and ketamine as above. The chest cavity was carefully opened and the left ventricle was entered with a 14-gauge perfusion cannula fixed to a vessel clamp; care was taken to avoid ventricular obstruction. The right atrium was opened with a 12-gauge needle to achieve outflow. With the heart providing the motive force, 250 ml/kg PBS (roughly 30 ml of PBS quickly) was perfused to clear erythrocytes and non-sticking leukocytes, followed by perfusion with FITC-coupled Concanavalin A lectin (20 μg/ml in PBS, pH 7.4, total concentration 5 mg/kg) (Vector Labs, Burlingame, Calif.). The latter stained adherent leukocytes and the vascular endothelium. Lectin staining was followed by PBS perfusion (30 ml quickly).
The retinas were flat-mounted in a water-based fluorescence-anti-fading medium (Southern Biotechnology, Birmingham, Ala.) and imaged via fluorescence microscopy (Leica upright microscope, Hamamatsu digital high sensitivity camera, openlab imaging software). The total number of adherent leukocytes per retina was counted in a masked fashion.

Experiment [6] concerns retinal vascular permeability (blood retina barrier). Kind of experiment: Evans Blue BRB breakdown after intravitreal azurocidin. The note with it: intravitreal 20 μg. Type of experiment: in vivo, Brown Norway rats. The method, then: as §1
Rats received intravitreous injections of 5 μl of sterile phosphate-buffered saline (PBS) containing 20 μg human neutrophil azurocidin (Athens Research and Biotechology, Atlanta, Ga.) in one eye and 5 μl of sterile phosphate-buffered saline (PBS) in the contralateral eye. The retinas were analyzed 45 minutes, 3 hours, and 24 hours after azurocidin injection.
Retinal vascular permeability was quantified as previously described (Qaum et al. (2002) supra, Xu et al. (2001) INVEST. OPHTHALMOL. VIS. SCI. 42; 789-94). After the animals were deeply anesthetized, Evans blue dye (Sigma) dissolved in normal saline (30 mg/ml) was injected through the tail vein over 10 seconds at a dosage of 45 mg/kg. Blood samples were obtained from the left ventricle, just before perfusion at 2 hours, to obtain the time-average Evans blue dye plasma concentration. These blood samples were centrifuged at 12,000 rpm for 15 minutes and diluted to 1/10,000th of their initial concentration in formamide (Sigma). The background-subtracted absorbance was determined by measuring each sample at 620 nm (the absorbance maximum for Evans blue dye in formamide) and 740 nm (the absorbance minimum) with a spectrophotometer. The concentration of dye in the plasma was calculated from a standard curve of Evans blue dye in formamide. After the dye had circulated for 2 hours, the chest cavity was opened, and the rats were perfused through the left ventricle with 1% paraformaldehyde in citrate buffer (0.05 M, pH 3.5) at a physiological pressure of 120 mm Hg. The retinas were then carefully dissected under an operating microscope. After measurement of the retinal weight, Evans blue dye was extracted by incubating each retina in 0.180 ml of formamide for 18 hours at 70° C. The extract was ultracentrifuged at a speed of 14,000 rpm for 60 minutes at 25° C. Sixty microliters of the supernatant was used for spectrophotometric measurement at 620 nm and 740 nm. The background-subtracted absorbance was determined by measuring each sample at 620 nm (the absorbance maximum for Evans blue dye in formamide) and 740 nm (the absorbance minimum). The concentration of dye in the extracts was calculated from a standard curve of Evans blue dye in formamide. Blood-retinal barrier breakdown was calculated as previously described (Qaum et al (2002) supra, Xu et al. (2001) supra). Briefly, as mentioned, the optical density of the formamide containing tissue-extracted Evans Blue dye and that of the animals' plasma were measured at two different wavelengths (620 and 740 nm). The values were then inserted into the following equation. [formula] Results were expressed as a percentage of the value in control eyes. As used through each of Examples 1 -12, the units for results from the EB technique are μl plasma/g retina/h. Ex Vivo Quantification of Retinal Leukostasis

On to VEGF, for which the “BRB breakdown as percentage of the value in control eyes” value in experiment [1] is listed as 320%±74. The “Evans Blue retinal leakage in VEGF-injected eye” value in experiment [1] (PBS eye 9.6±1.4 (VEGF alone), 5.4±1.4 (with aprotinin)) is 29.7±7.5 μl plasma/g retina/h. For the same molecule, the “fold increase in retinal vascular leakage compared to the PBS injected eye” value in experiment [1] (aprotinin i.v. 50,000KIU every eight hours, antibody 1 μg intravitreal 6 hours after VEGF) is 3.2±0.74 fold. Further, in experiment [2], the “TEER after 6 hours until 24 hours after treatment” value is listed as “showed no sign of recovery in the TEER values”; the “TEER up to 6 hours after treatment” value is recorded as “remained at the reduced levels until 6 hours after treatment”; the “TEER, first 30 minutes after incubation” value is “rapid and significant drop of resistance”. Further, in experiment [3], the “retinal distribution of intravenously injected 20 kDa FITC-conjugated dextran” value is “fluorescence diffusely distributed throughout the retinal tissues at both intraluminal and extravascular locations”. For the same molecule, the “anticipated release of AZ from leukocytes” value in experiment [4] is “induces the release of AZ from leukocytes”. In addition, the “leukocyte adhesion as a percentage of leukocyte adhesion in the contralateral PBS-injected eye” value in experiment [5] (24 hours after 50 ng VEGF, aprotinin 50,000 KIU i.v. 1 hour before, 8 and 16 hours after) was determined as 308%. In experiment [5] (intravitreal 50 ng VEGF, 24 hours post injection), the “fold increase in total number of leukocytes adherent to the retina vessels compared to PBS-injected eyes” value came out at 3 fold.

B1: azurocidin (protein, UniProt P20160 27-248, looked up)
Azurocidin: IVGGRKARPRQFPFLASIQNQGRHFCGGALIHARFVMTAASCFQSQNPGVSTVVLGAYDLRRRERQSRQTFSISSMSENGYDPQQNLNDLMLLQLDREANLTSSVTILPLPLQNATVEAGTRCQVAGWGSQRSGGRLSRFPRFVNVTVTPEDQCRPNNVCTGVLTRRGGICNGDGGTPLVCEGLAHGVASFSLGPCGRGPDFFTRVALFRDWIDGVLNNPGP
notes: human neutrophil azurocidin
As for B1, the “TEER after 6 hours until 24 hours after treatment” value in experiment [2] was “started to recover to normal levels and reached higher values than untreated control”. For the same molecule, the “TEER up to 6 hours after treatment” value in experiment [2] was “remained at the reduced levels until 6 hours after treatment”. Further, in experiment [2], the “TEER, first 30 minutes after incubation” value was “rapid and significant drop of resistance”. In experiment [6], the “time course of increase in retinal vascular permeability” value is recorded as “with a peak one to three hours post administration”. In addition, the “Evans Blue retinal leakage” value in experiment [6] (3 to 5 hours post injection, PBS eye 8.3±1.4) amounted to 21±2.3 μl plasma/g retina/h; in experiment [6] (24 hours post-injection, PBS eye 8.7±1.8), 16.5±2.8 μl plasma/g retina/h; in experiment [6] (one to three hours after injection, PBS eye 5.8±1.4), 45±17 μl plasma/g retina/h. Also, the “fold increase in Evans Blue retinal leakage compared to control eyes” value in experiment [6] (3 to 5 hours post injection, n=11) was determined as 2.7 fold; in experiment [6] (24 hours post-injection, n=6), 1.7 fold; in experiment [6] (approximately one to three hours after injection, n=8), 7.7 fold.

For the origin of these results see patent US20070248646A1, “Use of azurocidin inhibitors in prevention and treatment of ocular vascular leakage” (priority 2006, published 2007).
